Broadly, the inhibition in vivo is the share of the control response that was lost under treatment. A higher inhibition in vivo goes with strong suppression.

The test system of one assay is Cricetinae gen. sp. As to the kind of experiment: Ability to protect microvascular damages in ischemia/reperfusion (in vivo) was determined by measuring the inhibition of leaky sites, 30-min after the start of reperfusion at 30 mg/kg. The format is functional, Cricetulus griseus. The note with it: 0.5 h.
A short description of assay [1]: Antioxidant efficiency of compounds was evaluated by the lag phase duration until onset of linoleate peroxidation induced by AAPH.

In the case of `Oc1c(-c2ccc(F)cc2)nc2cnccn12`, the inhibition in vivo at 30 mg/kg with Cricetinae gen. sp. came to 37%. For the same compound, in assay [1], the Lag time was found to be 122 min.
In assay [1], `Cc1c(C)c2c(c(C)c1O)CCC(C)(C(=O)O)O2` (stereo not drawn) had a Lag time of 128 min.
With `Oc1c(-c2ccc(-c3ccccc3)cc2)nc2cnccn12`, the inhibition in vivo at 30 mg/kg with Cricetinae gen. sp. was found to be 71%. The Lag time in assay [1] turned out to be 77.5 min.
The like results for `Cc1ccc(-c2nc3cnccn3c2O)cc1` were, in that order, 67% and 78.7 min.
As to `Oc1c(-c2ccc(Cl)cc2)nc2cnccn12`, in the assay on Cricetinae gen. sp., at 30 mg/kg the inhibition in vivo was 82%. The Lag time in assay [1] worked out at 111 min.
Regarding `Oc1c(-c2ccc3ccccc3c2)nc2cnccn12`, 30 mg/kg produced 57% inhibition in vivo in the assay with Cricetinae gen. sp.. In addition, in assay [1], the Lag time was 74.9 min.
Consider `COc1ccc(-c2nc3cnccn3c2O)cc1`, for which the inhibition in vivo at 30 mg/kg in the assay with Cricetinae gen. sp. was 85%. The compound also showed a Lag time in assay [1] of 79.6 min.
The like results for `Oc1c(-c2ccccc2)nc2cnccn12` were, in that order, 79% and 146 min.
The like results for `Cc1nc2cnccn2c1O` were, in that order, 49% and 134 min.
Turning to `COc1cc(C(C)=O)ccc1O` [APOCYNIN], in the assay with Cricetinae gen. sp., the inhibition in vivo at 30 mg/kg is 59%.

The record behind these values is ChEMBL document CHEMBL1144967, “Protective effect of imidazolopyrazinone antioxidants on ischemia/reperfusion injury” (2003).
